Measurements reported in patent publication US20220310200A1, “METHODS FOR IDENTIFYING AND USING DISEASE-ASSOCIATED ANTIGENS” (KIROMIC BIOPHARMA, INC., priority 2019, published 2022).
No end group written: not given here.

Tested on: Autologous DCs pulsed with the IsoMSLN peptide
Test: DC-T-cell co-culture immunogenicity, 4-hour Calcein-AM-release cytotoxicity assay
Type: cell-based
Details: E/T ratio 10:1 and 5:1; peripheral blood mononuclear cells of a healthy individual; control unrelated HIV peptide; FIG. 5
Experimental: The peptide unique to the isoform variant (i.e., PQAPRRPL (SEQ ID NO: 19)) was then tested for immunogenicity using a dendritic cell (DC)- T-cell co-culture system as previously described (Chiriva-Internati et al. Blood. 2002 Aug. 1;100(3):961-5). A standard 4-hour Calcein-AM-release assay was performed to determine the cytotoxic activity of the IsoMSLN peptide stimulated T cells. Autologous DCs pulsed with the IsoMSLN peptide or with an unrelated peptide (derived from HIV), were used as target cells (at an effector-target cell [E/T] ratio of 10:1 and 5:1).

## PQAPRRPL [PQAPRRPL]
  immunogenicity (cytotoxic activity of peptide stimulated T cells, percent specific killing): immunogenic
